Read-outs that look alike come from different tables or passages of the source.
How the values were obtained:
Mtb H37Rv [1] = assay: Primary screen: MIC, IC50 and IC90 under aerobic conditions; type: cell-based; details: Mycobacterium tuberculosis
Mtb H37Rv [2] = assay: Secondary assay: MIC, IC50 and IC90 repeated at lower starting concentrations; type: cell-based; details: Mycobacterium tuberculosis
Mtb H37Rv [3] = assay: Minimal bactericidal concentration; type: cell-based, Mycobacterium tuberculosis; details: Mtb H37Rv aerobic
NRP Mtb H37Rv = assay: microbe, parasite or virus in culture; type: cell-based; details: Mycobacterium tuberculosis
Mycobacterium avium = assay: MIC against nontuberculous mycobacteria, Alamar blue; type: cell-based
Mycobacterium abscessus = assay: MIC, IC50, IC90 against nontuberculous mycobacteria; type: cell-based
intracellular Mtb H37Rv = assay: microbe, parasite or virus in culture; type: cell-based; details: Mycobacterium tuberculosis
CYP3A4 = CYP3A4 (Homo sapiens, UniProt P08684); assay: Cytochrome P450 inhibition; type: in vitro ADME
Sequence of CYP3A4 (P08684 whole entry): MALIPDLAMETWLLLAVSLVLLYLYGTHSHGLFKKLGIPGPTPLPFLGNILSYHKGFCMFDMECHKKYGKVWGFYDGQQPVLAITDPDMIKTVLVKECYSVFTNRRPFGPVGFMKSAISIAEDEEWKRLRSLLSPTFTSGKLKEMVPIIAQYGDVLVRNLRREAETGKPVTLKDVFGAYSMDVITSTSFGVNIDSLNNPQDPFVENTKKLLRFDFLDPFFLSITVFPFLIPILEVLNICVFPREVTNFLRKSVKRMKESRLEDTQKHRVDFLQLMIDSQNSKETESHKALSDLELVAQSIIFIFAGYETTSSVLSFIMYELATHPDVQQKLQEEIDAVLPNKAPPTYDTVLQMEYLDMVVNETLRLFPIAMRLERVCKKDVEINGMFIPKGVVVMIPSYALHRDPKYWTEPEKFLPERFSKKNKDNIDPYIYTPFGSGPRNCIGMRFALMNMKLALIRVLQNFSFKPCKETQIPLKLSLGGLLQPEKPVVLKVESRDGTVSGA

CYP2C9 = CYP2C9 (Homo sapiens, UniProt P11712); assay: Cytochrome P450 inhibition; type: in vitro ADME
Sequence of CYP2C9 (P11712 whole entry): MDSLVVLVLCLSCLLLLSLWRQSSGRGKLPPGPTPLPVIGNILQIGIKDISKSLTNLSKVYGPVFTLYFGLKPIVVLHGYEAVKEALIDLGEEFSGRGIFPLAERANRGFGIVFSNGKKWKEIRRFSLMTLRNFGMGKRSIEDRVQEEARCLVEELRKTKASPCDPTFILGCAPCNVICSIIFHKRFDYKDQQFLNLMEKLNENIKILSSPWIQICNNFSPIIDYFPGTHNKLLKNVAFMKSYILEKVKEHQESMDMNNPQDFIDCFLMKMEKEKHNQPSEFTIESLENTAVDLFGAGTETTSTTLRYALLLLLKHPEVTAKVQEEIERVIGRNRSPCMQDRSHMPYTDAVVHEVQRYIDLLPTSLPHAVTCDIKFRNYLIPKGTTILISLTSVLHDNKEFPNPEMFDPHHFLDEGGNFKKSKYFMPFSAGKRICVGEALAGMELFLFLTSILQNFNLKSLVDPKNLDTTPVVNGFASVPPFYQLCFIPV

HepG2 cytotoxicity = type: cell-based; details: human, HepG2 cells
[4] = Human plasma, equilibrium dialysis
in vitro [5] = details: human
in vitro [6] = details: human; remark: listed apart in the source
CYP2D6 = CYP2D6 (Homo sapiens, UniProt P10635); assay: biochemical
Sequence of CYP2D6 (P10635 whole entry): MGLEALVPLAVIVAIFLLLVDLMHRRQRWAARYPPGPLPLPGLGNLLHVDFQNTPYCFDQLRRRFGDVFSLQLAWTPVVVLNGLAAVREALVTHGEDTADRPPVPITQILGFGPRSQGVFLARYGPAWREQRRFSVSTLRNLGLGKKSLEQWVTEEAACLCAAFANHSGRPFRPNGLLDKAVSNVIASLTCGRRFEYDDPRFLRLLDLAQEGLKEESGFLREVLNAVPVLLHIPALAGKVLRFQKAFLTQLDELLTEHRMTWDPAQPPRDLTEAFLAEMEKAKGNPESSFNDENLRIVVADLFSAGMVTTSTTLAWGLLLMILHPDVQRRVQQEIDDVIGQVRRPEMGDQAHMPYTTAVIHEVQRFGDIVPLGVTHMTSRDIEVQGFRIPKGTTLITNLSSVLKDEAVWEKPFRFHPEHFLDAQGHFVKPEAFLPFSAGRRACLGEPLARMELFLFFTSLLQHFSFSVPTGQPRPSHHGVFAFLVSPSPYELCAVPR

CYP2C8 = target: T1, CYP2C8 (Homo sapiens, UniProt P10632); assay: biochemical
T1 sequence (P10632 1-490): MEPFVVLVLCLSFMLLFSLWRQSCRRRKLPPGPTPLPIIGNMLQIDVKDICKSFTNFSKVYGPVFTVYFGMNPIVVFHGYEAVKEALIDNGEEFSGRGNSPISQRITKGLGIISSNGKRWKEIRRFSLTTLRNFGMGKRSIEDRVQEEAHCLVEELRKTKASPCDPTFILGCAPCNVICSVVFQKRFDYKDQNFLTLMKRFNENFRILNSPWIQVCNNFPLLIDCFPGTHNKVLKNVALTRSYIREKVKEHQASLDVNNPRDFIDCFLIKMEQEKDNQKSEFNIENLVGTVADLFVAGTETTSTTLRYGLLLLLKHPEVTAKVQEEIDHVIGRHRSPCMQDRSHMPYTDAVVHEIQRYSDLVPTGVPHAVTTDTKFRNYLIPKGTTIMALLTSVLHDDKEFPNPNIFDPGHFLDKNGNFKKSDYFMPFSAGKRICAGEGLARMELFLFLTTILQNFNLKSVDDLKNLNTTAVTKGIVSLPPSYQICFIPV

CYP2B6 = target: T2, CYP2B6 (Homo sapiens, UniProt P20813); assay: biochemical
T2 sequence (P20813 1-491): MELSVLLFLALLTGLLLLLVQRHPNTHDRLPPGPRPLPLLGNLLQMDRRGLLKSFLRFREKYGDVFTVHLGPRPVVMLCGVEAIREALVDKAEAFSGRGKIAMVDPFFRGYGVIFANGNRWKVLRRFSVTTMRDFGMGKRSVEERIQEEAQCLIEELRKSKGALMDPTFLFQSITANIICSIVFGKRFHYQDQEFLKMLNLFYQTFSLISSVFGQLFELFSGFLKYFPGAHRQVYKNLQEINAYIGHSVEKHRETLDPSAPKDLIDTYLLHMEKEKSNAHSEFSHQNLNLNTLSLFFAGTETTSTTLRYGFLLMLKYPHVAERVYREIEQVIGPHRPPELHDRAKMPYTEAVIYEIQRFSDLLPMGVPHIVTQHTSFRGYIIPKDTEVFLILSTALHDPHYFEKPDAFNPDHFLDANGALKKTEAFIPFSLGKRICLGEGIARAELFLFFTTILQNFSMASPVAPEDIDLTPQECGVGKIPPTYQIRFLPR

CYP2C19 = CYP2C19 (Homo sapiens, UniProt P33261); assay: biochemical
Sequence of CYP2C19 (P33261 whole entry): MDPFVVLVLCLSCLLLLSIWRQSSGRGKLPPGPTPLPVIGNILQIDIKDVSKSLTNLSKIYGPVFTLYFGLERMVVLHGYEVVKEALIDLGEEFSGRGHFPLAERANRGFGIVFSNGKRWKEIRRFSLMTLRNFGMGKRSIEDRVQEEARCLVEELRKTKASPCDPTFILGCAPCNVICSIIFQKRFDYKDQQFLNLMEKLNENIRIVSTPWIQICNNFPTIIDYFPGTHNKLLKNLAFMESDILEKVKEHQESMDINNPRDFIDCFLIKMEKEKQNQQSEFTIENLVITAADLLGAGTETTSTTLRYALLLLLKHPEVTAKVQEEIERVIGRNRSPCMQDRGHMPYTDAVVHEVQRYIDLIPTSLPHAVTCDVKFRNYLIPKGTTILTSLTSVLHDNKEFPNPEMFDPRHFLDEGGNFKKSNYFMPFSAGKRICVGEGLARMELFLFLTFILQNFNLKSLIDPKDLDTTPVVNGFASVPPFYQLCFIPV

[7] = In vitro microsomal stability assay; details: human, microsomes
[8] = Caco-2 cell monolayer permeability assay; details: human, Caco-2

O=C(C[n+]1cn(Cc2cccc(Cn3c[n+](CC(=O)c4ccc([N+](=O)[O-])cc4)c4ccccc43)n2)c2ccccc21)c1ccc([N+](=O)[O-])cc1.[Br-].[Br-] [Compound 6f, 1,1′-(pyridine-2,6-diylbis(methylene))bis(3-(2-(4-nitrophenyl)-2-oxoethyl)-1H-benzo[d]imidazol-3-ium) bromide]
IC50 (Mtb H37Rv [1]): 14 µM | IC90 (Mtb H37Rv [1]): 21 µM | MIC (Mtb H37Rv [1]): 24 µM | IC50 (Mtb H37Rv [2]): 11 µM | IC90 (Mtb H37Rv [2]): 20 µM | MIC (Mtb H37Rv [2]; read-out: MIC aerobic condition): 16 µM | mechanism of action (bacteriostatic or bactericidal) (Mtb H37Rv [3]): bactericidal | IC50 (NRP Mtb H37Rv; Low oxygen): 9.7 µM | IC90 (NRP Mtb H37Rv; Low oxygen): 33 µM | MIC (NRP Mtb H37Rv; Low oxygen): 120 µM | IC50 (NRP Mtb H37Rv; Normal oxygen): 9.9 µM | IC90 (NRP Mtb H37Rv; Normal oxygen): 25 µM | MIC (NRP Mtb H37Rv; Normal oxygen): 71 µM | activity against M. avium (in words) (Mycobacterium avium): moderate activity | MIC (Mycobacterium avium; Mycobacterium avium): 200 µM | activity against M. abscessus (in words) (Mycobacterium abscessus): showed activity | IC50 (Mycobacterium abscessus; Mycobacteroides abscessus): 56 µM | IC90 (Mycobacterium abscessus; Mycobacteroides abscessus): 68 µM | MIC (Mycobacterium abscessus; Mycobacteroides abscessus): 88 µM | IC50 (intracellular Mtb H37Rv; THP-1, read-out: IC50 intracell): 14 µM | IC90 (intracellular Mtb H37Rv; THP-1, read-out: IC90 intracell): 26 µM | IC50 (CYP3A4): 6.6 µM | IC50 (CYP3A4; IC50 CYP3A4 – midazolam, probe substrate midazolam, human liver microsomes): > 20 µM | IC50 (CYP2C9): > 20 µM | IC50 at 72 h (HepG2 cytotoxicity): > 100 µM | Mean plasma fraction unbound [4]: 7.8% | IC50 (in vitro [5]): > 50 µM | recovery (in vitro [6]): 24.5% | fraction unbound (in vitro [6]; plasma): 0.078 | IC50 (CYP2D6): 0.92 µM | IC50 (CYP2C8): > 20 µM | IC50 (CYP2B6): > 20 µM | IC50 (CYP2C19): 8.8 µM | half-life at 1 μM ([7]; NADPH-dependent T1/2, Human): 1.77 h | microsomal CLint at 1 μM ([7]; NADPH-free CLint): < 12.8 µL/min/mg | half-life at 1 μM ([7]; NADPH-free T1/2, Human): > 3 h | Papp B→A [8]: 0.095 ×10⁻⁶ cm/s | efflux ratio [8]: 0.2

Reference: article PMC7421780 (Future Medicinal Chemistry, 2020)
